Results: PMC8002893, “Influence of Complexation of Thiosemicarbazone Derivatives with Cu (II) Ions on Their Antitumor Activity against Melanoma Cells” (International Journal of Molecular Sciences, 2021)

Key:
ERCC = assay: qRT-PCR gene expression in A375 cells: ERCC; format: cell-based, human; conditions: A375, 24 h, concentration corresponding to IC50; RQ = 2^-ΔΔCt vs control
Method: (§1) The expression level of genes connected with DNA repair and oxidative stress response was evaluated with quantitative real-time PCR (qRT-PCR) method. The A375 cells were seeded in 6-well culture plates at a density 1 × 10^5 cells/mL and after 70–80% confluency achievement the cells were treated with CuT1, Cu10, CuT16 in concentrations corresponding to IC50 values or DMSO as vehicle in control cultures. After 24h of incubation total RNA was isolated using the Syngen Blood/Cell RNA Mini Kit (Syngen Biotech, Wroclaw, Poland). All samples were transcribed using NG dART RT-PCR reagents (EURx, Gdansk, Poland) according to the manufacturer’s instructions. The relative mRNA expression level was determined by relative quantification method (ΔΔCt) using 18S ribosomal N5 (RNA18SN5) and beta-actin (ACTB) as endogenous controls. The reference genes were selected on the basis of our preliminary studies, where RNA18SN5 and ACTB remained unaffected by the experimental conditions. The PCR was conducted in triplicate using Applied Biosystems® 7500 Fast Real-Time PCR system (Applied Biosystems, Foster City, CA, USA) and SG qPCR Master Mix (2×) (EURx, Gdansk, Poland) in accordance with the manufacturer’s protocol. Data was presented and analysed as RQ values (RQ = 2^−ΔΔCt).

DNA of A375 cells = assay: DNA damage evaluation: number of AP sites; format: cell-based, human; conditions: A375, 24 h, concentration corresponding to IC50; control 0.67 ± 0.08
Method: DNA damage was evaluated on the basis of a basic (AP) sites presence, that arose in response to oxidative damage or as an intermediate in base excision repair pathway. The A375 cells were seeded in 6-well culture plates at a density 1 × 10^5 cells/mL and after 70–80% confluency achievement the cells were treated with CuT1, Cu10, CuT16 in concentrations corresponding to IC50 values or DMSO as vehicle in control cultures. After 24 h of incubation genomic DNA was isolated using Syngen DNA Mini Kit (Syngen Biotech, Wroclaw, Poland) according to the manufacturer’s instruction. The concentrations of isolated DNA for all samples were equalized to 100 µg/mL. The measurements of the number of AP sites were evaluated with DNA Damage Quantification Kit (Dojindo, Japan) according to the manufacturer’s instruction. The DNA was treated with Aldehyde Reactive Probe (ARP) to tag all of the AP sites with a biotin residue. Then all of the AP sites were quantified using avidin—biotin assay. The coloured product of horseradish peroxidase conjugated to the avidin was detected at 650 nm using a PowerWave™ xs microplate spectrophotometer (BioTek Instruments, Winooski, VT, USA).

CAT = assay: qRT-PCR gene expression in A375 cells: CAT; format: cell-based, human; conditions: A375, 24 h, concentration corresponding to IC50; RQ = 2^-ΔΔCt vs control
Method: as §1

MGMT = assay: qRT-PCR gene expression in A375 cells: MGMT; format: cell-based, human; conditions: A375, 24 h, concentration corresponding to IC50; RQ = 2^-ΔΔCt vs control
Method: as §1

PARP1 = assay: qRT-PCR gene expression in A375 cells: PARP1; format: cell-based, human; conditions: A375, 24 h, concentration corresponding to IC50; RQ = 2^-ΔΔCt vs control
Method: as §1

[1] = test system: SK-MEL-28 human melanoma cells; assay: MTT cell viability assay, SK-MEL-28 melanoma; format: cell-based; conditions: SK-MEL-28, MTT test, 24 h treatment
Method: (§2) The evaluation of cytotoxicity of tested compounds was carried out on the G361, A375, and SK-MEL-28 human melanoma cells and BJ human normal fibroblast cells. The cell lines were obtained from American Type Culture Collection (ATCC, Manassas, VA, USA). The cells were cultured at 37 °C in the presence of 5% CO2 in atmosphere. The culture medium (Dulbecco’s Modified Eagle’s Medium for G361 and A375 and Eagle’s Minimum Essential Medium for SK-MEL-28 and BJ) was supplemented with 10% foetal bovine serum. The cells morphology was examined under inverted phase contrast microscope Nikon Eclipse Ti (Nikon, Tokyo, Japan). The authenticity of tested cell lines was verified by short tandem repeat (STR) genotyping in the Department of Forensic Medicine (Medical University of Lublin, Lublin, Poland).
(§3) The cells were seeded into 96-well plates (in concentration: BJ, A375, and SK-MEL-28—1 × 10^5 cells/mL, G361—1.5 × 10^5 cells/mL) and cultured until they reach 70–80% confluency. Then the cells were incubated with tested compounds and dacarbazine in concentrations ranging from 10 to 500 µM or DMSO as vehicle in control cultures for next 24 h (max. DMSO concentration <0.5%). The compounds cytotoxicity was evaluated with the MTT colorimetric method based on the ability of viable cells to the transformation of tetrazolium salts (3-[4,5-dimethylthiazol-2-yl]-2,5-) diphenyltetrazolium bromide, MTT) to purple formazan, by cellular dehydrogenases. After 24-h-incubation cell cultures were supplemented with 20 µL of 5 mg/mL MTT (Thermofisher, Waltham, MA, USA) stock in PBS (Corning, NY, USA), and the incubation was continued for 4 h at 37 °C. Next, the medium with MTT was removed, and the formed crystals were dissolved in 200 µL of DMSO (dimethyl sulfoxide, Avantor, Gliwice, Poland). The solution absorbency was measured at 570 nm, using a PowerWave™ xs microplate spectrophotometer (BioTek Instruments, Winooski, VT, USA). The experiment was performed three times with three replicates for each concentration of tested compounds. IC50 values were determined using the AAT Bioquest IC50 calculator [51]. On the basis of obtained IC50 values for normal and malignant cells, A375 cell line and three tested compounds (CuT1, Cu10, CuT16) were chosen for further investigation.

A375 cells = assay: Microscopic observation of cell morphology; format: cell-based, human; conditions: A375, 24 h, concentration corresponding to IC50
Method: The MTT test results for selected compounds were verified by microscopic observations of cell morphology. […] A large part of the cells floated in the culture medium (Figure 5).
as §2

[2] = test system: A375 human melanoma cells; assay: MTT cell viability assay, A375 melanoma; format: cell-based
Method: as §2, §3

XPC = assay: qRT-PCR gene expression in A375 cells: XPC; format: cell-based, human; conditions: A375, 24 h, concentration corresponding to IC50; RQ = 2^-ΔΔCt vs control
Method: as §1

ATM = assay: qRT-PCR gene expression in A375 cells: ATM; format: cell-based, human; conditions: A375, 24 h, concentration corresponding to IC50; RQ = 2^-ΔΔCt vs control
Method: as §1

GPX2 = assay: qRT-PCR gene expression in A375 cells: GPX2; format: cell-based, human; conditions: A375, 24 h, concentration corresponding to IC50; RQ = 2^-ΔΔCt vs control
Method: as §1

[3] = test system: G361 human melanoma cells; assay: MTT cell viability assay, G361 melanoma; format: cell-based; conditions: G361, MTT test, 24 h treatment
Method: as §2, §3

SOD2 = assay: qRT-PCR gene expression in A375 cells: SOD2; format: cell-based, human; conditions: A375, 24 h, concentration corresponding to IC50; RQ = 2^-ΔΔCt vs control
Method: as §1

OGG1 = assay: qRT-PCR gene expression in A375 cells: OGG1; format: cell-based, human; conditions: A375, 24 h, concentration corresponding to IC50; RQ = 2^-ΔΔCt vs control
Method: as §1

MSH2 = assay: qRT-PCR gene expression in A375 cells: MSH2; format: cell-based, human; conditions: A375, 24 h, concentration corresponding to IC50; RQ = 2^-ΔΔCt vs control
Method: as §1

MLH1 = assay: qRT-PCR gene expression in A375 cells: MLH1; format: cell-based, human; conditions: A375, 24 h, concentration corresponding to IC50; RQ = 2^-ΔΔCt vs control
Method: as §1

[4] = test system: BJ human normal fibroblast cells; assay: MTT cell viability assay, BJ normal fibroblasts; format: cell-based; conditions: MTT test, 24 h treatment
Method: as §2, §3

## COc1ccc(C=NNC(=S)Nc2ccc(Cl)cc2)cc1OC.[Cl-].[Cl-].[Cu+2] [CuT16]
ERCC
  Mean RQ ERCC mRNA: 0.267
DNA of A375 cells
  AP sites number: 14.09 ± 0.44 AP/100 kbp
CAT
  Mean RQ CAT mRNA: 0.387
MGMT
  Mean RQ MGMT mRNA: 0.361
PARP1
  Mean RQ PARP1 mRNA: 0.640
[1]
  IC50: 478 ± 11 µM
A375 cells
  cell morphology (in words): became round and had poor adherence
[2]; A375, MTT test, 24 h treatment
  IC50: 145 ± 19.9 µM
[2]; from IC50 values, MTT, 24 h
  toxicity to A375 / malignant cells versus normal cells (in words): less toxic for normal cells
XPC
  Mean RQ XPC mRNA: 1.438
ATM
  Mean RQ ATM mRNA: 2.724
GPX2
  Mean RQ GPX2 mRNA: 0.022
[3]
  IC50: > 500 µM
SOD2
  Mean RQ SOD2 mRNA: 1.393
OGG1
  Mean RQ OGG1 mRNA: 0.952
MSH2
  Mean RQ MSH2 mRNA: 0.936
MLH1
  Mean RQ MLH1 mRNA: 0.929
[4]
  IC50: 450 ± 11.7 µM
